The test system of experiment [1] is HSV-1. Nature of the experiment: UL29+ single neurons and neuron clusters in explanted trigeminal ganglia. It counts as cell-based, herpes simplex virus 1 (HSV-1). The note with it: explant 48-hrs; compound 1 35 μM, compound 4 30 μM, ACV 100 μM, ML324 50 μM. An excerpt: Trigeminal ganglia were fixed in paraformaldehyde and tissue sections were […] with anti-UL29 and DAPI. The HSV E gene UL29 (DNA single strand binding replication protein) was used a marker for viral reactivation. Tissue sections were scored for UL29+ cell clusters (clusters indicate viral spread from the primary neuron to surrounding cells) and for individual neurons representing the primary reactivation event (single) (FIGS. 18 and 19).
Trigeminal ganglia were fixed in paraformaldehyde and tissue sections were costained with anti-UL29 and DAPI. The HSV E gene UL29 (DNA single strand binding replication protein) was used a marker for viral reactivation. Tissue sections were scored for UL29+ cell clusters (clusters indicate viral spread from the primary neuron to surrounding cells) and for individual neurons representing the primary reactivation event (single) (FIG. 25).

The subject of experiment [2] is IFN-α, TNF-α, IL-8 mRNAs. In words: Cellular innate interferon signaling mRNAs in mock or HSV-1 infected HFF cells. In kind it is cell-based, human. The note with it: 30 μM, 5-hrs. On the procedure: HFF cells were treated with EZH1/2 catalytic inhibitor compound 4 (30 μM) or DMSO for 5-hrs. HFF cells were then mock or infected with HSV-1 (2.0 PFU per cell) for 1.5-hrs in the presence of inhibitor or DMSO. The levels of HSV viral IE (ICP4 and ICP27), control (SP1), and cellular innate interferon signaling (IFN-α, TNF-α, IL-8) mRNAs are expressed as absolute levels (absolute copies).

The test system of experiment [3] is Zika virus (ZIKV). In words: Zika virus infection of HFF cells (focus forming units, percent infected cells). In kind it is cell-based. On the procedure:
FIG. 32 presents line graphs that show the number and size of Focus Forming Units (FFU) after HFF cells were treated with the indicated concentrations of compound 4 for 5 h and infected with ZIKV for 40 h, in accordance with embodiments of the invention.
HFF cells were treated with compound 4 and infected with Zika virus (ZIKV), a member of the flavivirus family.
To determine if pretreatment was required to suppress ZIKV infection, cells were pretreated with compound 4 or were treated 3 h post ZIKV adsorption. While pretreatment was modestly more efficient at suppression of infection at lower compound 4 concentrations, it was not essential to effect significant suppression (FIG. 34).

The test system of experiment [4] is HFF cells. In words: Microarray analysis of HFF cells. It counts as cell-based, human. The note with it: 30 μM, 4-hrs. From the text: -[…] (2013), incorporated herein by reference). In normal fibroblast cells (as opposed to established cell lines or transformed cells lines), 41 genes are co-regulated by IFN (16%) and compound 4 treatment alone.
Experiment [5] deals with HSV-1. Nature of the experiment: Spread of HSV infection in HFF cells (UL29 staining). The note with it: HSV-1 MOI 0.01 for 8.5-hrs, then treated for 12.5-hrs (30 μM). It counts as cell-based, herpes simplex virus 1 (HSV-1). Here is the method: HFF cells were mock or infected with HSV-1 (MOI 0.01) for 8.5-hrs to allow one round of the viral replication program. The HFF cells were then treated with EZH1/2 inhibitor (compound 1 or compound 4 at 30 μM), viral DNA polymerase inhibitor (ACV at 100 μM), or JMJD3 inhibitor (ML324 at 50 μM) for an additional 12.5-hrs. Cells were paraformaldehyde fixed, permeabilized, and stained for the viral E gene UL29 and actin. The viral E protein UL29 was used as a marker for the spread of viral infection.
HFF cells were mock or infected with HSV-1 (MOI 0.01) for 8.5-hrs to allow one round of the viral replication program. HFF cells were then treated with EZH1/2 (compound 1, compound 4), viral DNA polymerase (ACV), or JMJD3 (ML324) inhibitors for additional 12.5-hrs. Cells were paraformaldehyde fixed, permeabilized, and stained for the viral E gene UL29 and actin (Phalloidin). The viral E protein UL29 was used as a marker for the spread of viral infection.

For experiment [6], the system named is HSV-1. In words: HSV-1 viral IE mRNA levels in infected HFF cells. It counts as cell-based, herpes simplex virus 1 (HSV-1). From the text:
The HFF cells were then infected with HSV-1 [2.0 PFU (plaque-forming units) per cell] for 1.5-hrs in the presence of inhibitor or DMSO. […] In the figures, the levels of HSV viral IE (ICP4, ICP22, and ICP27) and cellular control (TBP and SP1) mRNAs are expressed relative to cells treated with DMSO (vehicle). […] The HFF cells were then infected with HSV-1 (2.0, 5.0, and 10.0 PFU per cell) for 1.5-hrs in the presence of the inhibitor or DMSO. The levels of HSV viral IE (ICP0, ICP4, ICP22, and ICP27) and cellular controls (SP1 and TBP) mRNAs are expressed relative to cells treated with DMSO (vehicle). […] The levels of HSV viral IE (ICP0, ICP4, ICP22, and ICP27) and cellular control (SP1 and TBP) mRNAs are expressed relative to cells treated with DMSO (vehicle). […] HFF and Vero cells were then infected with HSV-1 (2.0 PFU per cell) for 1.5-hrs in the presence of inhibitor or DMSO. The levels of HSV viral IE (ICP0, ICP4, ICP22, and ICP27) and cellular control (SP1 and TBP) mRNAs are expressed relative to cells treated with DMSO (vehicle). […] HFF cells were treated with EZH1/2 catalytic inhibitor compound 4 (30 μM) or DMSO for 5-hrs. HFF cells were then mock or infected with HSV-1 (2.0 PFU per cell) for 1.5-hrs in the presence of inhibitor or DMSO. The levels of HSV viral IE (ICP4 and ICP27), control (SP1), and cellular innate interferon signaling (IFN-α, TNF-α, IL-8) mRNAs are expressed as absolute levels (absolute copies). […] HFF cells were treated with the EZH1/2 catalytic inhibitor compound 4 (5 μM) or DMSO for the indicated time as shown in FIG. 12. […] The levels of HSV viral IE (ICP0, ICP4, ICP22, and ICP27), control (TBP, ABAT, APOL3, UTX, and JMJD3), and cellular innate interferon signaling (IFN-α) mRNAs are expressed as ratios relative to cells treated with DMSO (vehicle). In this Example compound 4 was decreased to 5 μM and the duration of pretreatment was increased to 12, 24, and 48-hrs.

[7] abbreviates: HFF cells treated 5 h, infected with ZIKV for 40 h, dose-dependent.
[8] abbreviates: normal fibroblast cells data set.

Entries after “also recorded” stand apart in the source; their conditions may differ.

In the case of `CC[C@H](C)n1cc(C)c2c(C(=O)NCc3c(C)cc(C)[nH]c3=O)cc(-c3ccc(N4CCNCC4)nc3)cc21` [compound 4, GSK126], in experiment [1], the “primary reactivation (UL29+ single neurons)” value was “reduced” and the “secondary spread of HSV (UL29+ neuron clusters)” value is reported as “reduced”. Moreover, in experiment [2], the “expression of innate antiviral signaling molecules IFN-α, TNF-α, and IL-8” value is listed as “induces the expression”. Besides, the “number of ZIKV infected cells (intracellular staining for ZIKV antigens)” value in experiment [3] (1 and 2 dpi) is “reduction”. In experiment [3] (setting [7]), the “number of ZIKV focus forming units (plaques)” value is “significantly reduced” and the “size of ZIKV focus forming units (plaques)” value is given as “significantly reduced”. Also, the “requirement of pretreatment for suppression of ZIKV infection” value in experiment [3] (pretreated vs treated 3 h post ZIKV adsorption) was “not essential”. In addition, in experiment [4], the “genes induced >2 fold that are co-regulated by IFN (Interferome)” value was found to be 212 genes; the “genes induced greater than 2 fold relative to vehicle (microarray)” value stood at 252 genes; the “pro-inflammatory pathways induced (Ingenuity Pathway Analysis)” value was “IL6, IL17, TLR, HMGB1, and JAK/STAT signaling pathways”; the “share of genes induced >2 fold that are co-regulated by IFN (Interferome)” value is given as 84%. Moreover, in experiment [4] (setting [8]), the “genes co-regulated by IFN in normal fibroblast cells” value was 41 genes and the “share of genes co-regulated by IFN in normal fibroblast cells” value stood at 16%. The “spread of HSV infection to adjacent cells (UL29 marker)” value in experiment [5] was “block the spread of HSV to adjacent cells; also recorded: block the spread of HSV infection”. Besides, the “effect of increasing the duration of pretreatment on HSV IE expression” value in experiment [6] (5 μM, pretreatment 12, 24, and 48-hrs) was “enhanced the suppression of HSV IE expression”. For the same molecule, the “cellular control SP1 mRNA” value in experiment [6] (30 μM, 5-hrs) is given as “no impact”. Besides, in experiment [6] (30 μM, 5-hrs, HSV-1 2.0 PFU per cell 1.5-hrs), the “HSV viral IE expression (ICP4 and ICP27 mRNA)” value is on record as “represses HSV viral IE expression”.

(Values after patent publication US20180071284A1, “PREVENTING OR TREATING VIRAL INFECTION BY INHIBITION OF THE HISTONE METHYLTRANSFERASE EZH1 OR EZH2” (The United States of America, as represented by the …, priority 2015, published 2018).)
